Experimental data: ChEMBL document CHEMBL3217528, “Bicyclic imidazole-4-one derivatives: a new class of antagonists for the orphan G protein-coupled receptors GPR18 and GPR55” (Medchemcomm, 2014)

Legend:
[1] = molecular target: T1, G-protein coupled receptor 55 (Homo sapiens, UniProt Q9Y2T6); assay: Agonist activity at human GPR55 expressed in CHO cells assessed as induction of LPI-induced beta-arrestin recruitment by beta-galactosidase enzyme fragment complementation method relative to LPI; format: cell-based; parameters: concentration or dose not given beside the values
T1 sequence (Q9Y2T6 whole entry, the tested form may be a part): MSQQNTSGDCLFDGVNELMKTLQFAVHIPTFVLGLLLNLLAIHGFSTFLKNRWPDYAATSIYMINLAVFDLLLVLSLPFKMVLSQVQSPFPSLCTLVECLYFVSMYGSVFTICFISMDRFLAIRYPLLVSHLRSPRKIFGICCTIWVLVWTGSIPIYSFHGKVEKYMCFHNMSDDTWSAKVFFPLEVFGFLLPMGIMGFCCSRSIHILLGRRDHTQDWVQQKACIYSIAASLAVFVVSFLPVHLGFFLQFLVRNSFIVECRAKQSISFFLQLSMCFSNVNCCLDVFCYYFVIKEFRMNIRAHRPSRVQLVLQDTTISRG

[2] = molecular target: T2, N-arachidonyl glycine receptor (Homo sapiens) (UniProt Q14330); assay: Agonist activity at human GPR18 expressed in CHO cells assessed as induction of beta-arrestin recruitment by beta-galactosidase enzyme fragment complementation method relative to delta9-THC; format: cell-based; parameters: concentration or dose not given beside the values
T2 sequence (whole entry): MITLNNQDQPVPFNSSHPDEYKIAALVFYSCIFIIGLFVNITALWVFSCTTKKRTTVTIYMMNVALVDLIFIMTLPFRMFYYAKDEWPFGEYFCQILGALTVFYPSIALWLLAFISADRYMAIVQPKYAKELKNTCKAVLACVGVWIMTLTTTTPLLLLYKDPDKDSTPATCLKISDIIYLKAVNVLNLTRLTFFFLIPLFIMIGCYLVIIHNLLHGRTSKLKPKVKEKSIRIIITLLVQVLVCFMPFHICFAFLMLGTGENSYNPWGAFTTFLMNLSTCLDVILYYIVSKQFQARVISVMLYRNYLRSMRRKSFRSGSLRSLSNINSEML

Cannabinoid receptor 2 [3] = molecular target: T3, Cannabinoid receptor 2 (Homo sapiens, UniProt P34972); assay: Displacement of [3H]CP55,940 from human recombinant CB2 receptor expressed in HEK293 cells at 10 uM; format: cell-based
T3 sequence (P34972 whole entry): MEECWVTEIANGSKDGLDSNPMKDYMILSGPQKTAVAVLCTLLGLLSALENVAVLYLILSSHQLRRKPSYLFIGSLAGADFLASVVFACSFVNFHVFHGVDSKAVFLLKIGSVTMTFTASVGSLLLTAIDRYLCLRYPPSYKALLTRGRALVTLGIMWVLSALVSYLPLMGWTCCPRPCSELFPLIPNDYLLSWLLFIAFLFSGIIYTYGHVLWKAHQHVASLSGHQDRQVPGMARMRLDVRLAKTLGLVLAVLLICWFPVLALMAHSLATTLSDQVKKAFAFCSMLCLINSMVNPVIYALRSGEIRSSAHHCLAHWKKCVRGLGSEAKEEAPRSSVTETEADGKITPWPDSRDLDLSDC

Cannabinoid receptor 2 [4] = molecular target: T3, Cannabinoid receptor 2; assay: Displacement of [3H]CP55,940 from human recombinant CB2 receptor expressed in HEK293 cells; format: cell-based
Cannabinoid receptor 1 [5] = molecular target: T4, Cannabinoid receptor 1 (Homo sapiens, UniProt P21554); assay: Displacement of [3H]CP55,940 from human recombinant CB1 receptor expressed in CHO-K1 cells at 10 uM; format: cell-based
T4 sequence (P21554 whole entry): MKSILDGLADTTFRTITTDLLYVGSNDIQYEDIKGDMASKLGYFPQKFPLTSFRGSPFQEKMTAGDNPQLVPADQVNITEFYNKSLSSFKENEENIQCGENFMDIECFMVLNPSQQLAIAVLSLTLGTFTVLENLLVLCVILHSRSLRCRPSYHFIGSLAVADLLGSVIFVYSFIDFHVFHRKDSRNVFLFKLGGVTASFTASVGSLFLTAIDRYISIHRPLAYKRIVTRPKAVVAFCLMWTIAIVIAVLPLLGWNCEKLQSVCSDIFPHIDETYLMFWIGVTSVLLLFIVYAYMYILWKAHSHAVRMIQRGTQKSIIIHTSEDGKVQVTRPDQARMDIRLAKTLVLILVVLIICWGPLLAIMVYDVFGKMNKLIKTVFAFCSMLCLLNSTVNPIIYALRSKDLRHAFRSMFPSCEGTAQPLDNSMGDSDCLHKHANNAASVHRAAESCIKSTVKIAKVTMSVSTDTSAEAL

Cannabinoid receptor 1 [6] = molecular target: T4, Cannabinoid receptor 1; assay: Displacement of [3H]CP55,940 from human recombinant CB1 receptor expressed in CHO-K1 cells; format: cell-based
[7] = molecular target: T1, G-protein coupled receptor 55; assay: Antagonist activity against human GPR55 expressed in CHO cells assessed as reduction in LPI-induced beta-arrestin recruitment at 10 uM by beta-galactosidase enzyme fragment complementation method; format: cell-based
[8] = molecular target: T1, G-protein coupled receptor 55; assay: Antagonist activity against human GPR55 expressed in CHO cells assessed as reduction in LPI-induced beta-arrestin recruitment by beta-galactosidase enzyme fragment complementation method; format: cell-based
[9] = molecular target: T2, N-arachidonyl glycine receptor (Homo sapiens); assay: Antagonist activity against human GPR18 expressed in CHO cells assessed as reduction in delta9-THC-induced beta-arrestin recruitment at 10 uM by beta-galactosidase enzyme fragment complementation method; format: cell-based
[10] = molecular target: T5, N-arachidonyl glycine receptor (Homo sapiens, UniProt Q14330); assay: Antagonist activity against human GPR18 expressed in CHO cells assessed as reduction in delta9-THC-induced beta-arrestin recruitment by beta-galactosidase enzyme fragment complementation method; format: cell-based
T5 sequence (Q14330 whole entry): T2 sequence (whole entry)

[11] = molecular target: Cannabinoid receptor 1 (Rattus norvegicus) (UniProt P20272); assay: Displacement of [3H]CP55,940 from CB1 receptor in rat brain cortical membranes at 10 uM; format: cell membranes
Chain of Cannabinoid receptor 1 (Rattus norvegicus) (P20272 whole entry): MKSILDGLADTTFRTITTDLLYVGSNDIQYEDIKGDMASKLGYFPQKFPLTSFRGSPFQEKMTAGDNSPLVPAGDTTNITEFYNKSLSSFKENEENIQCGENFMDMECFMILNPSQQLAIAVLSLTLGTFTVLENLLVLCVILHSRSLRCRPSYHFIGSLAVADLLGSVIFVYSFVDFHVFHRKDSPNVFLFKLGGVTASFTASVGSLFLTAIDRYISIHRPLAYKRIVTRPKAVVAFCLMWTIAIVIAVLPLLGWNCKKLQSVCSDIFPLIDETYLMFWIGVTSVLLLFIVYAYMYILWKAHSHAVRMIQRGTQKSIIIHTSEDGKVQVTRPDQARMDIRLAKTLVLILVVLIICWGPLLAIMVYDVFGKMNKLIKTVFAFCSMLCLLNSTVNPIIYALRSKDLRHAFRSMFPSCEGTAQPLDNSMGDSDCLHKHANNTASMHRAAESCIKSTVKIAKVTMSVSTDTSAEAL

Cannabinoid receptor 1 [12] = molecular target: Cannabinoid receptor 1 (Rattus norvegicus, UniProt P20272); assay: Displacement of [3H]CP55,940 from CB1 receptor in rat brain cortical membranes; format: cell membranes
Chain of Cannabinoid receptor 1 (Rattus norvegicus, UniProt P20272) (P20272 whole entry): as above

Structure (SMILES) | Activity [1] [%] | Activity [2] [%] | inhibition (Cannabinoid receptor 2 [3]) [%] | Ki (Cannabinoid receptor 2 [4]) [µM] | inhibition (Cannabinoid receptor 1 [5]) [%] | Ki (Cannabinoid receptor 1 [6]) [µM] | inhibition [7] [%] | IC50 [8] [µM] | inhibition [9] [%] | IC50 [10] [µM] | inhibition [11] [%] | Ki (Cannabinoid receptor 1 [12]) [µM]
O=C1/C(=C/c2c(Cl)cccc2Cl)N=C2SCCCN12 | 15 | 12 | 4 | > 10 | 14 | > 10 | 0 | > 10 | 0 | > 10 | – | –
CCOC(=O)C1CN2C(=O)C(c3ccccc3)(c3ccccc3)N=C2S1 (stereo unspecified) | 39 | 11 | 0 | > 10 | 2 | > 10 | 10 | > 10 | 0 | > 10 | 38 | > 10
CCCCC/C=C\C/C=C\C/C=C\C/C=C\CCCC(=O)NCC(=O)O [ARACHIDONOYL GLYCINE] | – | – | 36 | > 10 | 43 | > 10 | 6 | > 10 | 0 | > 10 | – | –
O=C1/C(=C/c2ccc(Cl)cc2)N=C2SCCCN12 | 0 | 13 | 23 | > 10 | 25 | > 10 | 35 | > 10 | 18 | > 10 | 15 | > 10
CC(C)c1ccc(/C=C2\N=C3SCCCN3C2=O)cc1 | 13 | 0 | 17 | > 10 | 12 | > 10 | 38 | > 10 | 4 | > 10 | 6 | > 10
COc1cccc(/C=C2\N=C3SCCCN3C2=O)c1OC | 0 | 10 | 15 | > 10 | 18 | > 10 | – | 16.4 | 10 | > 10 | – | –
O=C1/C(=C/c2ccc(-c3ccccc3)cc2)N=C2SCCCCN12 | 30 | 6 | – | 5.43 | -5 | > 10 | 0 | > 10 | 37 | > 10 | 0 | > 10
O=C1N=C2SCCN2C1(c1ccccc1)c1ccccc1 | 50 | 21 | 6 | > 10 | 30 | > 10 | 31 | > 10 | 0 | > 10 | 13 | > 10
COc1ccccc1/C=C1\N=C2SCCCN2C1=O | 12 | 0 | 27 | > 10 | 4 | > 10 | 33 | > 10 | 0 | > 10 | 4 | > 10
O=C1N=C2SCCCN2C1(c1ccccc1)c1ccccc1 | 53 | 11 | 9 | > 10 | 13 | > 10 | 2 | > 10 | 0 | > 10 | 4 | > 10
CCOC(=O)COc1cccc(/C=C2\N=C3SCCCCN3C2=O)c1 | 0 | 19 | 39 | > 10 | – | 4.78 | 4 | > 10 | 22 | > 10 | 27 | > 10
O=C1/C(=C/c2cccc([N+](=O)[O-])c2)N=C2SCCCN12 | 21 | 2 | 10 | > 10 | 19 | > 10 | 20 | > 10 | 6 | > 10 | 8 | > 10
O=C1/C(=C/c2cccc(OCc3ccccc3Cl)c2)N=C2SCCCN12 | 10 | 8 | 9 | > 10 | 0 | > 10 | 45 | ≥ 10 | – | 1.65 | – | –
O=C1N=C2SCCCN2/C1=C\C=C\c1ccccc1 | 59 | 9 | 19 | > 10 | 26 | > 10 | 0 | > 10 | 2 | > 10 | – | > 10
O=C1/C(=C/c2ccccc2F)N=C2SCCCN12 | 0 | 6 | 0 | > 10 | 13 | > 10 | – | 5.56 | 17 | > 10 | – | –
O=C1/C(=C/c2cccc(OCc3ccc(Cl)c(Cl)c3)c2)N=C2SCCCN12 | 4 | 0 | 0 | > 10 | 15 | > 10 | – | 11.8 | – | 6.16 | – | > 10
O=C1/C(=C/c2ccc([N+](=O)[O-])cc2)N=C2SCCCN12 | 39 | 0 | 20 | > 10 | 0 | > 10 | 12 | > 10 | 20 | > 10 | 23 | > 10
O=C1/C(=C/C=C/c2ccccc2)N=C2SCCCN12 | 29 | 7 | 37 | > 10 | 16 | > 10 | 27 | > 10 | 0 | > 10 | 18 | > 10
O=C1/C(=C/c2ccc(Br)cc2)N=C2SCCCN12 | 26 | 0 | 8 | > 10 | 29 | > 10 | 16 | > 10 | 13 | > 10 | 21 | > 10
COc1ccc(/C=C2\N=C3SCCCN3C2=O)cc1OC | 6 | 0 | 18 | > 10 | 7 | > 10 | 12 | > 10 | 2 | > 10 | 3 | > 10
Cc1ccc(C(=O)Oc2cccc(/C=C3\N=C4SCCCCN4C3=O)c2)cc1 | 25 | 0 | – | 2.58 | 35 | > 10 | 32 | > 10 | – | 6.45 | 4 | > 10
CN(C)c1ccc(/C=C2\N=C3SCCCN3C2=O)cc1 | 20 | 17 | – | 16.6 | 29 | > 10 | 13 | > 10 | 13 | > 10 | 6 | > 10
O=C1N2CCSC2=NC1(c1ccccc1)c1ccccc1 | 50 | 12 | 3 | > 10 | – | 21.1 | 39 | > 10 | 12 | > 10 | 15 | > 10
O=C1/C(=C/c2ccc(Cl)cc2Cl)N=C2SCCCN12 | 0 | 0 | 24 | > 10 | 8 | > 10 | – | 6.76 | 14 | > 10 | – | –
O=C(Oc1cccc(/C=C2\N=C3SCCCN3C2=O)c1)c1ccc(Cl)cc1 | 31 | 0 | 0 | > 10 | 12 | > 10 | 16 | > 10 | – | 14.3 | 24 | > 10
